The values below come from patent publication US7425557B2, “Inhibitors of glycogen synthase kinase 3” (Novartis Vaccines and Diagnostics, Inc., priority 1998, dated 2008).

The structures appear in SMILES notation.

For this assay, the target named is human GSK3β (Homo sapiens, UniProt P49841). Nature of the assay: Screening for GSK3 inhibitory activity using a cell-free assay. The assay is classed as biochemical. Conditions: read-out: IC50 with respect to GSK3. The method in brief: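 Radiometric cell-free assay with recombinant human GSK3β phosphorylating a biotinylated peptide substrate for 3 h. Reactions were stopped with 50 μM ATP/20 mM EDTA and captured on streptavidin plates. Incorporated radiolabel was counted by scintillation and plotted against compound concentration.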
Sequence of human GSK3β (P49841 whole entry): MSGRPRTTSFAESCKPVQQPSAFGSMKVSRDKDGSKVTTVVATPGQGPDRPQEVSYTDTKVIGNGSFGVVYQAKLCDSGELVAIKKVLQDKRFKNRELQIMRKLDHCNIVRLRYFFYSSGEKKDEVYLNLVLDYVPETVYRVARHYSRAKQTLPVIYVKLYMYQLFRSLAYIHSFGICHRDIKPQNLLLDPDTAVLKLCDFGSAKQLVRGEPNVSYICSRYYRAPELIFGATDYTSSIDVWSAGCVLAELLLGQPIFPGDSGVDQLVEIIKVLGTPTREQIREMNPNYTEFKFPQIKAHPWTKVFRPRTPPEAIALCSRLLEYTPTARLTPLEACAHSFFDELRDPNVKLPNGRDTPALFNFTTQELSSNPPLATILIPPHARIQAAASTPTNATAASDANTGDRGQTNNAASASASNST
For the compound `N#Cc1ccc(-c2nc(NCCNc3ccc([N+](=O)[O-])cn3)ncc2-c2ncc[nH]2)cc1` [4-[5-imidazol-2-yl-2-({2-[(5-nitro(2-pyridyl))amino]ethyl}amino)pyrimidin-4-yl]benzenecarbonitrile], the 50% inhibitory concentration (IC50) (commonly the midpoint of a concentration-inhibition curve) is at most 1 µM.
As for `N#Cc1ccc(-c2nc(NCCNc3ccc([N+](=O)[O-])cn3)ncc2[N+](=O)[O-])cc1` [4-[5-nitro-2-({2-[(5-nitro(2-pyridyl))amino]ethyl}amino)pyrimidin-4-yl]benzenecarbonitrile], the IC50 is at most 10 µM.
In the case of `CN(C)CCc1noc(-c2cnc(NCCNc3ccc([N+](=O)[O-])cn3)nc2-c2ccc(C#N)cc2)n1` [4-[5-{3-[2-(dimethylamino)ethyl](1,2,4-oxadiazol-5-yl)}-2-({2-[(5-nitro(2-pyridyl))amino]-ethyl}amino)pyrimidin-4-yl]benzenecarbonitrile], the concentration for half-maximal inhibition (IC50) is at most 1 µM.
`O=C(O)c1c(-c2ccc([N+](=O)[O-])cc2)nc(NCCNc2ccc([N+](=O)[O-])cn2)nc1C1CCCCC1` [4-cyclohexyl-2-({2-[(5-nitro(2-pyridyl))amino]ethyl}amino)-6-(4-nitrophenyl)pyrimidine-5-carboxylic acid]: the half-maximal inhibitory concentration (IC50) is at most 10 µM.
Regarding `Cc1nc(NCCNc2ccc([N+](=O)[O-])cn2)ncc1C(=O)O` [4-methyl-2-({2-[(5-nitro(2-pyridyl))amino]ethyl}amino)pyrimidine-5-carboxylic acid], the IC50 is at most 10 µM.
Consider `NC(=O)c1ccc(-c2ccnc(NCC(c3ccccc3)c3ccccc3)n2)cc1` [4-{2-[(2,2-diphenylethyl)amino]pyrimidin-4-yl}-benzamide], for which the IC50 was at most 10 µM.
Turning to `N#Cc1ccc(-c2ccnc(NCCc3ccccn3)n2)cc1` [4-{2-[(2-(2-pyridyl)ethyl)-amino]pyrimidin-4-yl}benzenecarbonitrile], the IC50 is at most 10 µM.
In the case of `NC(=O)c1ccc(-c2ccnc(NCCc3ccccn3)n2)cc1` [4-{2-[(2-(2-pyridyl)ethyl)amino]pyrimidin-4-yl}benzamide], the IC50 was at most 1 µM.
`NC(=O)c1ccc(-c2ccnc(NCCOc3ccccc3)n2)cc1` [4-{2-[(2-phenoxyethyl)amino]pyrimidin-4-yl}benzamide]: the IC50 was at most 10 µM.
As to `CC(CNc1nccc(-c2ccc(C(N)=O)cc2)n1)c1ccccc1` (stereo not drawn) [4-{2-[(2-phenylpropyl)amino]pyrimidin-4-yl}benzamide], the IC50 is at most 1 µM.
In the case of `NC(=O)c1ccc(-c2ccnc(NCCNc3ccc(C(N)=S)cn3)n2)cc1` [4-{2-[(2-{[5-(aminothioxomethyl)-2-pyridyl]amino}ethyl)amino]pyrimidin-4-yl}benzamide], the IC50 is at most 1 µM.
`NC(=O)c1ccc(-c2ccnc(NCCNc3ccc(C(F)(F)F)cn3)n2)cc1` [4-{2-[(2-{[5-(trifluoromethyl)-2-pyridyl]amino}-ethyl)amino]pyrimidin-4-yl}benzamide]: the IC50 was at most 1 µM.
As for `NC(=O)c1ccc(-c2ccnc(NCCCOc3ccc4ccccc4c3)n2)cc1` [4-{2-[(3-(2-naphthyloxy)propyl)amino]pyrimidin-4-yl}benzamide], the 50% inhibitory concentration (IC50) was at most 10 µM.
`NC(=O)c1ccc(-c2ccnc(NCCCOc3ccc4ncccc4c3)n2)cc1` [4-{2-[(3-(6-quinolyloxy)propyl)-amino]pyrimidin-4-yl}benzamide]: the IC50 was at most 10 µM.
As to `NC(=O)c1ccc(-c2ccnc(NCCCOc3ccccc3)n2)cc1` [4-{2-[(3-phenoxypropyl)amino]pyrimidin-4-yl}benzamide], the IC50 was at most 10 µM.
As for `NC(=O)c1ccc(-c2ccnc(NCCCCc3ccccc3)n2)cc1` [4-{2-[(4-phenylbutyl)amino]-pyrimidin-4-yl}benzamide], the concentration for half-maximal inhibition (IC50) is at most 10 µM.
Consider `NC(=O)c1ccc(-c2ccnc(NCc3ccncc3)n2)cc1` [4-{2-[(4-pyridylmethyl)amino]pyrimidin-4-yl}benzamide], for which the half-maximal inhibitory concentration (IC50) is at most 10 µM.
Turning to `CC(=O)Nc1cccc(-c2cccc(CNc3nccc(-c4ccc(C(N)=O)cc4)n3)c2)c1` [4-{2-[({3-[3-(acetylamino)phenyl]phenyl}methyl)amino]pyrimidin-4-yl}benzamide], the IC50 is at most 10 µM.
